Calls of active or inactive are those of the source. The calls are words filed in the database; no cut-off is given here.

Data set [1] deals with T1, Solute carrier family 12 member 2 (Homo sapiens) (UniProt P55011).
T1 sequence (whole entry): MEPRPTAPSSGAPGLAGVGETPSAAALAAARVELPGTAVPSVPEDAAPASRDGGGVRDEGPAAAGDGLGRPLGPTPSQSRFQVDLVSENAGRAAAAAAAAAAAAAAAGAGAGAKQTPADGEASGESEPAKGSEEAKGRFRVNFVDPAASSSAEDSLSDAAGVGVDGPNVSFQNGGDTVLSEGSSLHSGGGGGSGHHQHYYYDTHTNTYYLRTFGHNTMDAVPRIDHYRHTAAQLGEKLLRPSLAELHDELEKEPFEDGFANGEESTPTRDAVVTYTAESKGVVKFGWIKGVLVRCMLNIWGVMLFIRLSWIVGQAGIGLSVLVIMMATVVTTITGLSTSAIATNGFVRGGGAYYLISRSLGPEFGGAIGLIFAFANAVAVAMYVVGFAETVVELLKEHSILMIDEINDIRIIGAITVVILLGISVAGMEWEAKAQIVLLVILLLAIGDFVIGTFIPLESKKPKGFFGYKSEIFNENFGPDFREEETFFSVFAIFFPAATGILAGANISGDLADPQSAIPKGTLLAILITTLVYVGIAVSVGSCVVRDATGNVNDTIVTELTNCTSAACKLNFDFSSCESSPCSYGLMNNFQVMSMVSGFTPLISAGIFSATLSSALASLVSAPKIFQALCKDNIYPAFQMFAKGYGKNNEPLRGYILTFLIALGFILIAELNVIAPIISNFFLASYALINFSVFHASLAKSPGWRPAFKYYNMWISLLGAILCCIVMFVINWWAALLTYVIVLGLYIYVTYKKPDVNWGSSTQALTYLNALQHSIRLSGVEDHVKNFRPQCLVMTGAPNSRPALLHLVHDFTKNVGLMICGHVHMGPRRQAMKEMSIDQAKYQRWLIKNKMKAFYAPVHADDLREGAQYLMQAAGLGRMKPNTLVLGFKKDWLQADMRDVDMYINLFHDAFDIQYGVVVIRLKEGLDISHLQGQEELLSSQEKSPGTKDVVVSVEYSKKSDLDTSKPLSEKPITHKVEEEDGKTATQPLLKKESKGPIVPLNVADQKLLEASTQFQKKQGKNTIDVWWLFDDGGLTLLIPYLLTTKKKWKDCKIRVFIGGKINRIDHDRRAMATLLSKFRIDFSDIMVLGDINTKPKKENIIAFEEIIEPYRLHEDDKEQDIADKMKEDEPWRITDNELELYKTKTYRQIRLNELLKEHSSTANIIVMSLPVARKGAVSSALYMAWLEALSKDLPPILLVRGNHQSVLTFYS
The data set is described as follows: Inhibition of NKCC1 (unknown origin) transfected in HEK293 cells expressing mbYFPQS plasmid assessed as reduction in Cl- influx at 10 uM incubated for 30 mins by fluorescence multiplate reader analysis. In kind it is cell-based.

Data set [2] is described as follows: Solubility of compound in Cl- free hypotonic solution at pH 7.4 assessed as precipitation at 100 uM measured after 30 mins. As to conditions: buffer, pH 7.4, 0.5 h. In kind it is physicochemical.
Data set [3] concerns the target T1, Solute carrier family 12 member 2 (Homo sapiens). The data set is described as follows: Inhibition of NKCC1 (unknown origin) transfected in HEK293 cells expressing mbYFPQS plasmid assessed as reduction in Cl- influx at 100 uM incubated for 30 mins by fluorescence multiplate reader analysis. In kind it is cell-based.
A further data set concerns Primary neuron. The data set is described as follows: Inhibition of NKCC1 in mouse primary hippocampal neurons assessed as reduction of Ca2+ uptake at 100 uM incubated for 15 mins by Fluo-4AM dye based fluorescence analysis. Type of data set: cell-based.
Data set [4] can be described thus: Solubility of compound in assay buffer at pH 7.4 assessed as precipitation at 100 uM measured after 15 mins. Type of data set: physicochemical. To be noted: pH 7.4, 0.25 h.
For data set [5], the system named is Mus musculus. The data set is described as follows: Cognitive enhancement effect in Ts65Dn mouse assessed as restoration of short-term working memory by measuring number of correct choices at 0.6 mg/kg, ip measured after 1 to 4 weeks by T-maze test. As to conditions: time 1-4 weeks. Type of data set: functional, organism-based.
The nature of data set [6]: Toxicity in Ts65Dn mouse assessed as reduction in body weight at 0.6 mg/kg, ip administered daily for 3 weeks. In kind it is organism-based. As to conditions: in vivo, 504 h.
Data set [7] deals with Mus musculus. The data set is described as follows: Diuretic activity in wild type mouse assessed as increase in urine volume at 0.6 mg/kg, ip measured after 2 hrs. In kind it is functional, organism-based.
Data set [8] has as its system Mus musculus. The data set is described as follows: Cognitive enhancement effect in Ts65Dn mouse assessed as rescue of poor novel-discrimination ability by measuring increase in time spent in exploring novel object at 0.6 mg/kg, ip measured after 1 to 4 weeks by novel object recognition test. Type of data set: functional, organism-based. As to conditions: time 1-4 weeks.

Data set [9] addresses T2, Solute carrier family 12 member 5 (Homo sapiens) (UniProt Q9H2X9).
T2 sequence (whole entry): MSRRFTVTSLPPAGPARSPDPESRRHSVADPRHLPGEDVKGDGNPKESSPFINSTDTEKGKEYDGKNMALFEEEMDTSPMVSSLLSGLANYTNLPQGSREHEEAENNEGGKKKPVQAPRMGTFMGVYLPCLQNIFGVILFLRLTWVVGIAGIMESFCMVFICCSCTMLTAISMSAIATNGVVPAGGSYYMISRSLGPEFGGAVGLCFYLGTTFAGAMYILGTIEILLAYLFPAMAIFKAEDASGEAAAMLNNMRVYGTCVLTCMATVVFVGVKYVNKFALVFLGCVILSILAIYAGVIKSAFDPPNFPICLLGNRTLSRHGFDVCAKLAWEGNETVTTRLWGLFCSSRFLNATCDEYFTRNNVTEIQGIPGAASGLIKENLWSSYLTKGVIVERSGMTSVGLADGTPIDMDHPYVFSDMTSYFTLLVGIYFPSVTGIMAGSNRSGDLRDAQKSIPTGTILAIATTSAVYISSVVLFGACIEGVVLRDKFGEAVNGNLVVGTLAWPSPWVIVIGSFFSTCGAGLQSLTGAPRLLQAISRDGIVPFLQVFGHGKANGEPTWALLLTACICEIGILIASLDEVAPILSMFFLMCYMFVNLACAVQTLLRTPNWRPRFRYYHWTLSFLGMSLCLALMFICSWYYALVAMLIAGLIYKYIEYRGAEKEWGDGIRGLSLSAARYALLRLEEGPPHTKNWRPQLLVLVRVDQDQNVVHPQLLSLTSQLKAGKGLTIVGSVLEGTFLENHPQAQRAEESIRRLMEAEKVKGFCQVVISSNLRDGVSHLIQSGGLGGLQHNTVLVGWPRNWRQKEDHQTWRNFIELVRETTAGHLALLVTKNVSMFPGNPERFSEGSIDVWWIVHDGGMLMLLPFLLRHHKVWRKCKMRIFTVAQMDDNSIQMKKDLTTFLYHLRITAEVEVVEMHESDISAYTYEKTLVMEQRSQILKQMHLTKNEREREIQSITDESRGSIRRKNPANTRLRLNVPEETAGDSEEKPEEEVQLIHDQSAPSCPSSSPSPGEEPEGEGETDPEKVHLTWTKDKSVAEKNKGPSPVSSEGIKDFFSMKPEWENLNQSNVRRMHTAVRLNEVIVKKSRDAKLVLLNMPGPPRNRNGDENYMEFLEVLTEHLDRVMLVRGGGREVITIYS
The data set is described as follows: Inhibition of KCC2 (unknown origin) transfected in HEK293 cells assessed a reduction in TI influx at 10 uM incubated for 1 hr by fluorescence based analysis relative to control. In kind it is cell-based.

Data set [10] deals with Mus musculus. The data set is described as follows: Rescue of hyperactivity in Ts65Dn mouse assessed as assessed as reduction in total distance travelled at 0.6 mg/kg, ip measured after 1 to 4 weeks by open field test. In kind it is functional, organism-based. As to conditions: time 1-4 weeks.
Data set [11] concerns Mus musculus. The data set is described as follows: Cognitive enhancement effect in Ts65Dn mouse assessed as rescue of electric shock induced freezing response at 0.6 mg/kg, ip measured after 1 to 4 weeks by contextual fear-conditioning test. Type of data set: functional, organism-based. As to conditions: time 1-4 weeks.
The test system of data set [12] is Mus musculus. The data set is described as follows: Diuretic activity in Ts65Dn mouse assessed as increase in urine volume at 0.6 mg/kg, ip measured after 2 hrs. In kind it is functional, organism-based.
Data set [13] is described as follows: Toxicity in mouse assessed as reduction in body weight at 0.6 mg/kg, ip administered daily for 3 weeks. In kind it is organism-based. To be noted: in vivo, 504 h.

For `CCCCCCCCNc1ccc(C(=O)O)cc1S(N)(=O)=O`, in data set [1], the inhibition entry is “inactive”. With `CCCCNc1ccc([N+](=O)[O-])cc1S(=O)(=O)N(C)C`, the inhibition result in [1] is “inactive”. Besides, in [2], the solubility result is “Insoluble”. `CCCCNc1ccc([N+](=O)[O-])cc1S(=O)(=O)NC`: in data set [1], the inhibition result was “inactive”.

Consider `CCCCCCCCNc1ccc([N+](=O)[O-])cc1S(=O)(=O)NC`, for which the inhibition entry in [3] and in [1] was “inactive” in each case. As to `CCCCCCNc1ccc([N+](=O)[O-])cc1S(N)(=O)=O`, the inhibition result in [1] was “inactive”. As for `CN(C)S(=O)(=O)c1cc(C(=O)O)ccc1NCCCC(F)(F)F`, the inhibition entry in [1] is “inactive”. For the molecule `CCCCCCCCNc1ccc([N+](=O)[O-])cc1S(=O)(=O)N(C)C`, the inhibition result in data set [3] and in [1] was “inactive” in each case.

Turning to `O=C(O)c1ccc(NCCCCCCCC(F)(F)F)c(S(=O)(=O)NC2CCCC2)c1`, in the data set with Primary neuron, the inhibition result was “inactive”. Also, the solubility result in data set [4] is “Insoluble”. As to `CN(C)S(=O)(=O)c1cc(C(=O)O)ccc1NCCC(C)(C)C`, the inhibition result in [3] and in data set [1] was “inactive” throughout. Regarding `CCCCCCNc1ccc(C(=O)O)cc1S(=O)(=O)N(C)C`, the inhibition result in [1] was “inactive”.

As to `CCCCCCNc1ccc([N+](=O)[O-])cc1S(=O)(=O)N(C)C`, the inhibition result in data set [1] is “inactive”. Take `O=C(O)c1ccc(NCCCCCCCC(F)(F)F)c(S(=O)(=O)N2CCCCC2)c1`: in the data set on Primary neuron, the inhibition entry is “inactive”. In addition, the solubility entry in [4] is given as “Insoluble”. On to `CCCCCCCCNc1ccc(C(=O)O)cc1S(=O)(=O)N(C)C`, for which, in [1], the inhibition result is “inactive”. Regarding `CCCCNc1ccc(C(=O)O)cc1S(N)(=O)=O`, the inhibition result in data set [1] was “inactive”. Same read-out and setting: the result for `CCCCCCNc1ccc(C(=O)O)cc1S(N)(=O)=O` reads “inactive”. On to `CN(C)S(=O)(=O)c1cc(C(=O)O)c(O)cc1NCCCCCCCC(F)(F)F`, for which the outcome in the data set on Mus musculus [5], with Mus musculus [8], in the data set on Mus musculus [10] and with Mus musculus [11] was Active. The Activity result in data set [6] and in data set [13] was “Non-Toxic” in each case. Further, the outcome in the data set with Mus musculus [7] and in the data set with Mus musculus [12] was inactive. In addition, the inhibition entry in [9] and in data set [1] was “inactive” in each case. As to `CCCCNc1cc(C(=O)O)cc(S(N)(=O)=O)c1Oc1ccccc1`, the result with Mus musculus [7] and in the data set with Mus musculus [12] was Active.

`CCCCCCNc1ccc(C(=O)O)cc1S(=O)(=O)NC`: the inhibition entry in [3] and in data set [1] was “inactive” throughout. As for `COCCCCCCNc1ccc(C(=O)O)cc1S(=O)(=O)N(C)C`, the inhibition result in data set [3] and in [1] was “inactive” each time.

For `CC(C)(C)CCNc1ccc([N+](=O)[O-])cc1S(N)(=O)=O`, in data set [1], the inhibition entry is “inactive”. With `CNS(=O)(=O)c1cc(C(=O)O)ccc1NCCC(C)(C)C`, in data set [1], the inhibition entry was “inactive”. For the molecule `O=C(O)c1ccc(NCCCCCCCC(F)(F)F)c(S(=O)(=O)NC2CCCCC2)c1`, the inhibition entry with Primary neuron is “inactive”. Besides, the solubility result in data set [4] is “Insoluble”.

Consider `COCCCCNc1ccc(C(=O)O)cc1S(=O)(=O)N(C)C`, for which, in [1], the inhibition result is “inactive”. Take `CN(C)S(=O)(=O)c1cc([N+](=O)[O-])ccc1NCCC(C)(C)C`: in [2], the solubility entry was “Insoluble”. In the case of `CC(C)(C)CCNc1ccc(C(=O)O)cc1S(N)(=O)=O`, the inhibition entry in data set [1] is “inactive”. As for `CN(C)S(=O)(=O)c1cc(C(=O)O)c(OC2CCCC2)cc1NCCCCCCCC(F)(F)F`, the inhibition entry in the data set with Primary neuron is “inactive”. In addition, the solubility result in data set [4] is given as “Insoluble”. Turning to `CCCCNc1ccc([N+](=O)[O-])cc1S(N)(=O)=O`, in [1], the inhibition result is “inactive”. For `CN(C)S(=O)(=O)c1cc(C(=O)O)ccc1NCCCCCC(F)(F)F`, the inhibition result in data set [1] is “inactive”.
